Reference: PubChem BioAssay AID192 (DTP/NCI, 2004)
Values joined by “and” are separate entries in the source; they are usually repeats but may differ in a detail not shown here. Equal entries are not always repeated. Inconclusive results and toxic doses are left out. How the source made its calls: active means survival T/C of 150% or more; inactive means T/C below 125% in these data.

Test system: BDF1 mice, B16 melanoma ip, median survival T/C
Test: NCI In Vivo Anticancer Drug Screen. Data for tumor model B16 Melanoma (intraperitoneal) in B6D2F1 (BDF1) mice
Conditions: endpoint: median survival time, higher = longer survival
Method in brief: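 In this screen, activity was judged from survival or tumor size in treated versus vehicle-treated tumor-bearing mice, reported as T/C.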

[1] = dose: 25.0 mg/kg/injection, schedule: Q01DX009 (ip), vehicle: Klucel (hydroxypropylcellulose) (HPC)
[2] = dose: 50.0 mg/kg/injection, schedule: Q01DX009 (ip), vehicle: Klucel (hydroxypropylcellulose) (HPC)
[3] = dose: 100.0 mg/kg/injection, schedule: Q01DX009 (ip), vehicle: saline with Tween-80
[4] = dose: 200.0 mg/kg/injection, schedule: Q01DX009 (ip), vehicle: saline with Tween-80
[5] = dose: 400.0 mg/kg/injection, schedule: Q01DX009 (ip), vehicle: saline with Tween-80
[6] = dose: 100.0 mg/kg/injection, schedule: Q04DX003 (ip), vehicle: saline with Tween-80
[7] = dose: 200.0 mg/kg/injection, schedule: Q04DX003 (ip), vehicle: saline with Tween-80
[8] = dose: 50.0 mg/kg/injection, schedule: Q04DX003 (ip), vehicle: saline with Tween-80

Measured: T/C

COc1cc2c3c(c4ccc(OC)c(OC)c4c2cc1OC)CN1CCC[C@@H]1C3
inactive: dose: 2.0 mg/kg/injection, schedule: Q01DX009 (ip), vehicle: saline with Tween-80 97 % of control | dose: 4.0 mg/kg/injection, schedule: Q01DX009 (ip), vehicle: saline with Tween-80 89 % of control | dose: 8.0 mg/kg/injection, schedule: Q01DX009 (ip), vehicle: saline with Tween-80 102 % of control and 118 % of control | dose: 16.0 mg/kg/injection, schedule: Q01DX009 (ip), vehicle: saline with Tween-80 106 % of control

CC(=O)Oc1ccccc1O
inactive: dose: 25.0 mg/kg/injection, schedule: Q01DX009 (ip), vehicle: saline + Tween-80 + alcohol 100 % of control | dose: 50.0 mg/kg/injection, schedule: Q01DX009 (ip), vehicle: saline + Tween-80 + alcohol 109 % of control | dose: 100.0 mg/kg/injection, schedule: Q01DX009 (ip), vehicle: saline + Tween-80 + alcohol 104 % of control

Cc1ccc(C(=O)C(c2ccccc2)C(Cl)c2ccccc2)cc1 (stereo not drawn)
inactive: dose: 100.0 mg/kg/injection, schedule: Q04DX003 (ip), vehicle: Klucel (hydroxypropylcellulose) (HPC) 102 % of control | dose: 200.0 mg/kg/injection, schedule: Q04DX003 (ip), vehicle: Klucel (hydroxypropylcellulose) (HPC) 103 % of control | dose: 400.0 mg/kg/injection, schedule: Q04DX003 (ip), vehicle: Klucel (hydroxypropylcellulose) (HPC) 103 % of control

CCc1cccc2ccccc12
inactive: dose: 75.0 mg/kg/injection, schedule: Q01DX009 (ip), vehicle: Klucel (hydroxypropylcellulose) (HPC) 118 % of control | dose: 150.0 mg/kg/injection, schedule: Q01DX009 (ip), vehicle: Klucel (hydroxypropylcellulose) (HPC) 121 % of control | dose: 300.0 mg/kg/injection, schedule: Q01DX009 (ip), vehicle: Klucel (hydroxypropylcellulose) (HPC) 106 % of control

COc1cc(-c2ccc(N=Nc3ccc4c(S(=O)(=O)O)cc(S(=O)(=O)O)c(N)c4c3O)c(OC)c2)ccc1N=Nc1ccc2c(S(=O)(=O)O)cc(S(=O)(=O)O)c(N)c2c1O
inactive: dose: 12.5 mg/kg/injection, schedule: Q01DX009 (ip), vehicle: Klucel (hydroxypropylcellulose) (HPC) 88 % of control | [1] 97 % of control | [2] 102 % of control

CCOc1cc([N+](=O)[O-])c(OCC)cc1Cl
inactive: [3] 94 % of control | [4] 97 % of control | [5] 96 % of control

O=C(C=P(c1ccccc1)(c1ccccc1)c1ccccc1)c1ccccc1
inactive: [6] 102 % of control | [7] 102 % of control | dose: 400.0 mg/kg/injection, schedule: Q04DX003 (ip), vehicle: saline with Tween-80 102 % of control

N#CCN1CCCCC1
inactive: dose: 0.39 mg/kg/injection, schedule: Q01DX009 (ip), vehicle: saline 96 % of control | dose: 0.78 mg/kg/injection, schedule: Q01DX009 (ip), vehicle: saline 100 % of control | dose: 1.56 mg/kg/injection, schedule: Q01DX009 (ip), vehicle: saline 102 % of control

CC(=O)Nc1cc2c(cc1[N+](=O)[O-])-c1ccccc1C2O (stereo not drawn)
inactive: [8] 105 % of control | [6] 110 % of control | [7] 105 % of control

CC1=C/C(=N\NS(=O)(=O)c2ccc([N+](=O)[O-])cc2)CC(C)(C)C1
inactive: [2] 94 % of control | dose: 100.0 mg/kg/injection, schedule: Q01DX009 (ip), vehicle: Klucel (hydroxypropylcellulose) (HPC) 93 % of control | dose: 200.0 mg/kg/injection, schedule: Q01DX009 (ip), vehicle: Klucel (hydroxypropylcellulose) (HPC) 96 % of control | dose: 400.0 mg/kg/injection, schedule: Q01DX009 (ip), vehicle: Klucel (hydroxypropylcellulose) (HPC) 88 % of control

C/C(=N\[N+](C)(C)C)c1ccc2ccccc2c1
inactive: [1] 93 % of control | [2] 100 % of control

O=C(CCCN1CCN(c2ccccn2)CC1)c1ccc(F)cc1
inactive: dose: 0.19 mg/kg/injection, schedule: Q01DX009 (ip), vehicle: Klucel (hydroxypropylcellulose) (HPC) 93 % of control | dose: 0.39 mg/kg/injection, schedule: Q01DX009 (ip), vehicle: Klucel (hydroxypropylcellulose) (HPC) 89 % of control | dose: 0.78 mg/kg/injection, schedule: Q01DX009 (ip), vehicle: Klucel (hydroxypropylcellulose) (HPC) 110 % of control | dose: 1.56 mg/kg/injection, schedule: Q01DX009 (ip), vehicle: Klucel (hydroxypropylcellulose) (HPC) 92 % of control | dose: 3.12 mg/kg/injection, schedule: Q01DX009 (ip), vehicle: Klucel (hydroxypropylcellulose) (HPC) 88 % of control

CC1CCC(=C(c2ccccc2)c2ccccc2)C(C)N1C (stereo not drawn)
inactive: dose: 25.0 mg/kg/injection, schedule: Q04DX003 (ip), vehicle: saline with Tween-80 105 % of control | [8] 93 % of control

CCOP(=O)(CCCCN1C(=O)c2ccccc2C1=O)OCC
inactive: dose: 100.0 mg/kg/injection, schedule: Q01DX009 (ip), vehicle: saline 104 % of control | dose: 200.0 mg/kg/injection, schedule: Q01DX009 (ip), vehicle: saline 96 % of control | dose: 400.0 mg/kg/injection, schedule: Q01DX009 (ip), vehicle: saline 103 % of control

S=c1[nH]c2ccccc2s1
inactive: dose: 25.0 mg/kg/injection, schedule: Q01DX009 (ip), vehicle: carboxymethylcellulose (CMC) 105 % of control | dose: 50.0 mg/kg/injection, schedule: Q01DX009 (ip), vehicle: carboxymethylcellulose (CMC) 103 % of control | dose: 100.0 mg/kg/injection, schedule: Q01DX009 (ip), vehicle: carboxymethylcellulose (CMC) 109 % of control

O=C1C(N2CCCCC2)=C(N2CC2)C(=O)C(N2CCCCC2)=C1N1CC1
inactive: dose: 2.5 mg/kg/injection, schedule: Q01DX009 (ip), vehicle: saline 94 % of control and 97 % of control | dose: 5.0 mg/kg/injection, schedule: Q01DX009 (ip), vehicle: saline 121 % of control

Cc1c(O)ccc(=O)n1O
inactive: dose: 40.0 mg/kg/injection, schedule: Q01DX009 (ip), vehicle: saline with Tween-80 97 % of control | dose: 80.0 mg/kg/injection, schedule: Q01DX009 (ip), vehicle: saline with Tween-80 101 % of control and 102 % of control and 111 % of control | dose: 160.0 mg/kg/injection, schedule: Q01DX009 (ip), vehicle: saline with Tween-80 94 % of control (2×) and 111 % of control | dose: 320.0 mg/kg/injection, schedule: Q01DX009 (ip), vehicle: saline with Tween-80 97 % of control

C=C1CCN(c2cccc(Cl)c2)C1=O
inactive: dose: 1.0 mg/kg/injection, schedule: Q01DX009 (ip), vehicle: saline + alcohol 107 % of control | dose: 2.0 mg/kg/injection, schedule: Q01DX009 (ip), vehicle: saline + alcohol 117 % of control | dose: 4.0 mg/kg/injection, schedule: Q01DX009 (ip), vehicle: saline + alcohol 101 % of control and 115 % of control | dose: 8.0 mg/kg/injection, schedule: Q01DX009 (ip), vehicle: saline + alcohol 101 % of control | dose: 16.0 mg/kg/injection, schedule: Q01DX009 (ip), vehicle: saline + alcohol 95 % of control | dose: 32.0 mg/kg/injection, schedule: Q01DX009 (ip), vehicle: saline + alcohol 96 % of control | dose: 64.0 mg/kg/injection, schedule: Q01DX009 (ip), vehicle: saline + alcohol 100 % of control

CN(C)c1ccc(N=C2C=CC(=O)C=C2)cc1
inactive: dose: 1.5 mg/kg/injection, schedule: Q01DX009 (ip), vehicle: saline 111 % of control | dose: 3.0 mg/kg/injection, schedule: Q01DX009 (ip), vehicle: saline 98 % of control | dose: 6.0 mg/kg/injection, schedule: Q01DX009 (ip), vehicle: saline 105 % of control

C=C1OC(=O)OC1(C)CC(OC)OC (stereo not drawn)
inactive: [3] 102 % of control | [4] 113 % of control | [5] 108 % of control

O=C(O)CCCC1CCCCC1.[Cu+2]
inactive: dose: 6.25 mg/kg/injection, schedule: Q01DX009 (ip), vehicle: saline with Tween-80 100 % of control | dose: 12.5 mg/kg/injection, schedule: Q01DX009 (ip), vehicle: saline with Tween-80 97 % of control
